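How tested: cells in 96-well plates exposed to compound for 48 hours at five concentrations. GI50 marks 50% less growth.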 The source made the active and inactive calls. No stated cut-off is given here; in the data, active = GI50 up to about 1.1 µM and inactive = higher.
Tests used:
Experiment in all cases: DTP human tumour cell line panel, 48 h
M19-MEL = system: M19-MEL
HCT-116 = system: HCT-116
SNB-75 = system: SNB-75
SF-539 = system: SF-539
Malme-3M = system: Malme-3M
CCRF-CEM = system: CCRF-CEM
HCT-15 = system: HCT-15
SF-295 = system: SF-295
SK-MEL-2 = system: SK-MEL-2
EKVX = system: EKVX
786-0 = system: 786-0
SK-MEL-28 = system: SK-MEL-28
RXF 393 = system: RXF 393
NCI-H460 = system: NCI-H460
NCI-H522 = system: NCI-H522

Row | Compound | GI50 (M19-MEL) | GI50 (HCT-116) | GI50 (SNB-75) | GI50 (SF-539) | GI50 (Malme-3M) | GI50 (CCRF-CEM) | GI50 (HCT-15) [µM] | GI50 (SF-295) | GI50 (SK-MEL-2) | GI50 (EKVX) | GI50 (786-0) | GI50 (SK-MEL-28) | GI50 (RXF 393) | GI50 (NCI-H460) | GI50 (NCI-H522)
1 | O=C(N/N=C(/c1nc2ccc(Cl)cc2[nH]c1=O)C(O)c1ccc(Cl)cc1Cl)c1ccncc1 (stereo not given) | > 100 µM (inactive) | > 100 µM (inactive) | > 100 µM (inactive) | > 100 µM (inactive) | > 100 µM (inactive) | > 100 µM (inactive) | > 100 | > 100 µM (inactive) | > 100 µM (inactive) | > 100 µM (inactive) | > 100 µM (inactive) | > 100 µM (inactive) | > 100 µM (inactive) | > 100 µM (inactive) | 
2 | CCOc1cc2c[n+](C)c3c4cc(OC)c(OC)cc4ccc3c2cc1OC | > 100 µM (inactive) | > 100 µM (inactive) | > 100 µM (inactive) | > 100 µM (inactive) | > 100 µM (inactive) | 20.8 µM (inactive) | > 100 | > 100 µM (inactive) | > 100 µM (inactive) | > 100 µM (inactive) | 17.7 µM (inactive) | > 100 µM (inactive) | > 100 µM (inactive) | > 100 µM (inactive) | > 100 µM (inactive)
3 | COc1ccc(C2c3cc4c(cc3OC(O)(CO)C2C(=O)O)OCO4)c(OC)c1OC.COc1ccc(C2c3cc4c(cc3OC3(O)COC(=O)C23)OCO4)c(OC)c1OC (stereo not given) | > 100 µM (inactive) | > 100 µM (inactive) | 75.2 µM (inactive) | > 100 µM (inactive) | > 100 µM (inactive) | 39.4 µM (inactive) | > 100 | > 100 µM (inactive) | > 100 µM (inactive) | > 100 µM (inactive) | > 100 µM (inactive) | > 100 µM (inactive) | 74 µM (inactive) | > 100 µM (inactive) | 
4 | COc1ccc([C@@H]2OC(=O)C3C2C(=O)O[C@H]3c2ccc(OC)c(OC)c2)cc1OC (stereo not given in full) | > 100 µM (inactive) | > 100 µM (inactive) | 81.5 µM (inactive) | > 100 µM (inactive) | > 100 µM (inactive) | > 100 µM (inactive) | > 100 | > 100 µM (inactive) | > 100 µM (inactive) | > 100 µM (inactive) | > 100 µM (inactive) | > 100 µM (inactive) | > 100 µM (inactive) | > 100 µM (inactive) | > 100 µM (inactive)
5 | NCCCNCCSSCCCCS(=O)O | 12.6 µM (inactive) | 25.7 µM (inactive) | 30.8 µM (inactive) | 80 µM (inactive) | 20.3 µM (inactive) |  | > 100 | 36.2 µM (inactive) |  | 85.7 µM (inactive) | > 100 µM (inactive) | 20.9 µM (inactive) | 30.3 µM (inactive) | 65.9 µM (inactive) | 13.8 µM (inactive)
6 | Cc1ccc(C)c(N2C(=O)C(=O)C(c3nc4ccccc4s3)C(=O)C2=O)c1 | > 100 µM (inactive) | > 100 µM (inactive) | > 100 µM (inactive) | > 100 µM (inactive) | > 100 µM (inactive) | > 100 µM (inactive) | > 100 | > 100 µM (inactive) | > 100 µM (inactive) | > 100 µM (inactive) | > 100 µM (inactive) | > 100 µM (inactive) | > 100 µM (inactive) | > 100 µM (inactive) | > 100 µM (inactive)
7 | COc1ccc(S(=O)(=O)NNS(C)(=O)=O)cc1 | > 100 µM (inactive) | > 100 µM (inactive) | > 100 µM (inactive) | > 100 µM (inactive) | > 100 µM (inactive) | 70 µM (inactive) | > 10 | > 100 µM (inactive) | 60.5 µM (inactive) | > 100 µM (inactive) | > 100 µM (inactive) |  | > 100 µM (inactive) |  | > 100 µM (inactive)
8 | CCOC(=O)C1=C(C(=O)OCC)C2c3ccccc3C=CN2C(C(=O)OCC)=C(SC)S1 (stereo not given) | > 100 µM (inactive) | 50.7 µM (inactive) | > 100 µM (inactive) | > 100 µM (inactive) | > 100 µM (inactive) | 30.8 µM (inactive) | 79.8 | > 100 µM (inactive) | > 100 µM (inactive) | > 100 µM (inactive) | > 100 µM (inactive) | > 100 µM (inactive) | 73.1 µM (inactive) | > 100 µM (inactive) | 24.4 µM (inactive)
9 | CN(C)C(c1ccccc1)C(O)c1ccccc1 (stereo not given) | > 100 µM (inactive) |  | 75.5 µM (inactive) | > 100 µM (inactive) | > 100 µM (inactive) | > 100 µM (inactive) | > 100 | > 100 µM (inactive) | > 100 µM (inactive) | > 100 µM (inactive) | > 100 µM (inactive) | > 100 µM (inactive) | > 100 µM (inactive) | > 100 µM (inactive) | > 100 µM (inactive)
10 | CC(=O)Nc1ccc(-c2nnc(SCC(=O)Nc3ccc(C)cc3)o2)cc1 | 17.6 µM (inactive) | 15.7 µM (inactive) | 16.4 µM (inactive) | 13.5 µM (inactive) | 15.7 µM (inactive) | 24.3 µM (inactive) | 16.2 | 16.6 µM (inactive) | 14.5 µM (inactive) |  | 17 µM (inactive) | 16.1 µM (inactive) | 19 µM (inactive) | 23.2 µM (inactive) | 18.2 µM (inactive)
11 | CC(Oc1ccc2c(=O)cc(-c3ccccc3)oc2c1)C(=O)O (stereo not given) | > 100 µM (inactive) | > 100 µM (inactive) | > 100 µM (inactive) | > 100 µM (inactive) | > 100 µM (inactive) | > 100 µM (inactive) |  | > 100 µM (inactive) |  | > 100 µM (inactive) | > 100 µM (inactive) | > 100 µM (inactive) | > 100 µM (inactive) | > 100 µM (inactive) | > 100 µM (inactive)
12 | COc1ccc(NC(=O)COC(=O)c2cccc3c(=O)c4ccccc4[nH]c23)cc1 | 19.2 µM (inactive) | 12.9 µM (inactive) | 21 µM (inactive) | 18.1 µM (inactive) | 23.4 µM (inactive) | 13.8 µM (inactive) |  | 19.5 µM (inactive) |  | 18.4 µM (inactive) | 19.1 µM (inactive) | 30.8 µM (inactive) | 15.3 µM (inactive) |  | 17.9 µM (inactive)
13 | Cc1cccc2[n+]1[C@H]1[C@H]([C@@H]3O[C@H]1c1ccccc13)[S+]([O-])N2 (stereo not given in full) | 29.9 µM (inactive) | 30.3 µM (inactive) | 58.5 µM (inactive) | 77.6 µM (inactive) | 28.6 µM (inactive) | 34.8 µM (inactive) |  | 59.8 µM (inactive) | 25.2 µM (inactive) | 44.4 µM (inactive) | > 100 µM (inactive) | > 100 µM (inactive) | 89.1 µM (inactive) | 25 µM (inactive) | 34.8 µM (inactive)
14 | Cn1cc(C(=O)NCCC(=N)N)cc1NC(=O)C1=[N+](C)C=C(NC(=O)c2cccc(C(=O)NC3=CC(C(=O)Nc4cc(C(=O)NCCC(=N)N)cn4C)=[N+](C)C3)c2)C1 | > 100 µM (inactive) |  | > 100 µM (inactive) | 41.2 µM (inactive) | 24.8 µM (inactive) | > 100 µM (inactive) | > 100 | > 100 µM (inactive) | > 100 µM (inactive) | > 100 µM (inactive) | 37.8 µM (inactive) | > 100 µM (inactive) | 35.3 µM (inactive) | > 100 µM (inactive) | > 100 µM (inactive)
